Values quoted from earlier work as cited in patent publication US20140012157A1, “Monobody Sensors for Monitoring Neuromuscular Blockade” (priority 2007, published 2014).

How the values were obtained:
[1] = PTC of 1 measured; from t=18.8−6.46√PTC
[2] = manufacturer's recommended intubation dose
[3] = test system: isolated cat anterior tibialis and sartorius muscles

Compound	time until return of the TOF [1] [min]	2×ED 95 dose (double the dose that is effective for 95% of the population) [2] [mg/kg]	receptors that had to be blocked by the antagonist before block was noticeable [3] [%]	receptors that had to be blocked for near complete blockade [3] [%]
C=CC[N+]1([C@H]2C[C@H]3[C@@H]4CC[C@H]5C[C@H](O)[C@@H](N6CCOCC6)C[C@]5(C)[C@H]4CC[C@]3(C)[C@H]2OC(C)=O)CCCC1 [rocuronium]	12.34	0.6		
COc1cc2c3cc1Oc1cc(ccc1O)C[C@@H]1c4c(cc(OC)c(O)c4Oc4ccc(cc4)C[C@@H]3N(C)CC2)CC[N+]1(C)C [tubocurarine]			76	92
